Measurements from patent publication US12018327B2, “Methods and compositions relating to epoxide hydrolase genes” (The Regents of the University of California, priority 2018, dated 2024).

Experiments:
autologous T cells = test: Co-culture of 12,13 DiHOME treated DCs with autologous T cells, T cell subsets by flow cytometry; assay type: cell-based, human
Description: Co-culture of human DCs and T cells in the presence of 12,13 DiHOME was performed as previously described. In brief, DCs were isolated from the PBMCs of two healthy human donors and treated for five days with 130 μM 12,13 DiHOME solubilized in 0.2% DMSO or vehicle (0.2% DMSO) in the presence of 20 ng mL^−1 IL-4 (R&D Systems, Minneapolis, MN) and 10 ng mL^−1 GM-CSF (R&D Systems, Minneapolis, MN). Fresh treatment media was added every 48 hrs throughout the course of the study. Eighteen hours prior to co-culture, DCs were stimulated with 10 ng mL^−1 TNFα, IL1β, and IL-6 (Peprotech, Rocky Hill, NJ) and 1 mM prostaglandin E2 (Stemcell Technologies, Cambridge, MA). DCs were subsequently washed and co-cultured with autologous T cells in the presence of 10 ng mL^−1 anti-CD28 and anti-CD49d (BD Bioscience, San Jose, CA).
After five days of co-culture, T cell subsets were analyzed by flow cytometry. To assess cytokine secretion, cells were stimulated for 16 hrs with Phorbol Myristate Acetate-Ionomycin (ACROS, Morris Planes, NJ) and GolgiPlug (Gplug; BD Biosciences, San Jose, CA). Flow cytometry data was collected on a BD LSR II flow cytometer. Helper T cell subsets were defined as follows: Th1 CD3+CD4+IFNγ+; Th2 CD3+CD4+IL-4+; Th17 CD3+CD4+IL-17+, Treg CD3+CD4+CD25+FoxP3+. The human T cell gating strategy can be found in FIG. 4D.

PPARγ = test: PPARγ-activated luciferase reporter assay in Raw264.7 cells; assay type: cell-based; conditions: 24 hours after treatment
Description: A modified PPARγ luciferase assay was performed as described in Ye et. al.. A PPRE-luciferase reporter plasmid, PPRE X3-TK-luc from Bruce Spiegelman (Plasmid #1015; Addgene, Cambridge, MA), and a PPARγ overexpression plasmid, pGST-PPARgamma from Bert Vogelstein (Plasmid #16549; Addgene, Cambridge, MA), were ordered from Addgene and purified with the Plasmid Plus Maxi Kit (Qiagen, Germantown, MD). Raw264.7 cells grown in R10 media (Roswell Park Memorial Institute (RPMI) media 1640 with 10% heat-inactivated Fetal Bovine SerμMand 2 mM L-glutamine and 100 U mL^−1 penicillin—streptomycin) were transfected with the PPRE-reporter, PPARγ, and Renilla luciferase plasmid DNA in a 1:20:40 ratio, using 50 ng/well of reporter plasmid DNA. Fugene HD Transfection reagent (Promega, Madison, WI) was combined with plasmid DNA in a 4:1 ratio, and the total volume was brought to 5 μL/well with RPMI. The transfection mixture was gently combined with dilute Raw264.7 cells and plated in black, clear-bottom, 96-well plates at a density of 50,000 cells per well. […] Twenty-four hours after treatment luciferase and Renilla luminescence were measured using the Dual-Glo Luciferase Assay kit (Promega, Madison, WI) on a Cytation 3 plate reader (BioTek Instruments, Winooski, VT).

[1] = tested on: human DCs (CD3-CD19-CD11c+); test: Human DC maturation by flow cytometry (PPARγ-regulated proteins); assay type: cell-based
Description: Human DC maturation was assessed by flow cytometry. PBMCs were isolated from two healthy human donors using Ficoll-Hypaque gradient centrifugation as previously described and cultured for five days in the presence of 20 ng mL^−1 IL-4 and 10 ng mL^−1 GM-CSF. Monocytic DCs (DCs) were defined as CD3-CD19-CD11c+. The DC gating strategy can be found in FIG. 4E.

[2] = target: transient receptor potential vanilloid 1 (TRPV1) (Homo sapiens, UniProt Q8NER1); conditions: ref [15]; cited from earlier work
transient receptor potential vanilloid 1 (TRPV1), sequence (Q8NER1 whole entry, species assumed): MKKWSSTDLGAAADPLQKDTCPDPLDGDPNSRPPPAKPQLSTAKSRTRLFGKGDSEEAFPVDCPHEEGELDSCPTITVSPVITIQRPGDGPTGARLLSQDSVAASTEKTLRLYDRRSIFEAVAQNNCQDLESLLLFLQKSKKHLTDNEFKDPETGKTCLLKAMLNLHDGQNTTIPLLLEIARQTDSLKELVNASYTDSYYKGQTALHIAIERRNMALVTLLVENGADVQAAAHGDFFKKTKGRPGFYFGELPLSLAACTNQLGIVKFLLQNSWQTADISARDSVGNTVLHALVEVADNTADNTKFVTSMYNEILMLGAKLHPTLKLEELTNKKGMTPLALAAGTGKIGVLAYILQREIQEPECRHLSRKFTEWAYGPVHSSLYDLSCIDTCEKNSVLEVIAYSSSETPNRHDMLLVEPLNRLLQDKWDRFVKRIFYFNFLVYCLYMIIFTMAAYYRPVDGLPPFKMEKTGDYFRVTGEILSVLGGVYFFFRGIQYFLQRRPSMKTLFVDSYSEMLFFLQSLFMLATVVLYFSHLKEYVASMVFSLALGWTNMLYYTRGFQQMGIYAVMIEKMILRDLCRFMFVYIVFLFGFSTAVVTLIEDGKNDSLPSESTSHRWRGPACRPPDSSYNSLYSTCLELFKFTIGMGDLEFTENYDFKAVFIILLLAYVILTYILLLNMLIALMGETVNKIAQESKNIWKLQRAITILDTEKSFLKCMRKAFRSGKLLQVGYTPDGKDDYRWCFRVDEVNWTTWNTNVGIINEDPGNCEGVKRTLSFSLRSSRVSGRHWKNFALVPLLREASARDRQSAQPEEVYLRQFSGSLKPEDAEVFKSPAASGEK

Compound: CCCCCC(O)C(O)C/C=C\CCCCCCCC(=O)O (stereo not shown) [12,13 DiHOME]
- cell viability (autologous T cells; DC and T cell co-culture): without decreasing
- distribution of helper T cells (autologous T cells; DCs treated with 130 μM): significant shift
- frequency of Tregs (CD3+CD4+CD25+FoxP3+) (autologous T cells; DCs treated with 130 μM): specific decrease
- concentrations that lead to PPARγ activation (PPARγ): > 50 µM
- expression of CD36 on DCs ([1]; high concentrations (200 μM)): increase
- cell viability ([1]; human DCs, flow cytometry): did not alter
- expression of CCR7 on DCs ([1]; increasing doses): significant decrease
- expression of CD1a on DCs ([1]; increasing doses): significant decrease
- expression of CD80 on DCs ([1]; increasing doses): significant decrease
- action on TRPV1 [2]: activator
